The text below walks through data of patent US11180479B2 (HAPLOGEN GmbH, priority 2017, dated 2021).

One assay addresses T1, PLA2G16 (Homo sapiens, UniProt P53816).
T1 construct: Hexa-His (N); made in house; host or cells: E. coli BL21(DE3)
T1 sequence (P53816 1-162): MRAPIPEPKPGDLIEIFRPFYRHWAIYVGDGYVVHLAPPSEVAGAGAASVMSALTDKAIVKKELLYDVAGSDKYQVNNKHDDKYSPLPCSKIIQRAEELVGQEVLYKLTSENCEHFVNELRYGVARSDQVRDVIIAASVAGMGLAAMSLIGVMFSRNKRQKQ
The experiment in a line: Enzyme activity assay for PLA2G16 (Red/Green BODIPY PC-A2 fluorescence). The class given is biochemical. To be noted: His-tagged PLA2G16, 4 min pre-incubation, compound 2 nM to 50 μM; first symbol in parentheses. In outline: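 N-His human PLA2G16 was expressed in E. coli and Ni-NTA purified. Enzyme in 5 mM glutathione was preincubated 4 min with compound (2 nM–50 μM final), then Red/Green BODIPY PC-A2 in DOPC/DOPG/cholesterol vesicles was added (50 mM Tris pH 8.5, 100 mM NaCl). Fluorescence increase (ex 480/em 530 nm) over 10 min gave activity; IC50 came from nonlinear regression.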

In assay [1] the test system is picornaviruses (CVB1, HRV-A2, HRV-A23, EV-68). The experiment in a line: Anti-picornavirus cytopathic effect (CPE) reduction assay on HeLa H1 cells. The class given is cell-based. The following applies: 48 h, category from averaging EC50 values of four picornaviruses (CVB1, HRV-A2, HRV-A23, EV68), second symbol in parentheses. The gist of the method:
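HeLa H1 cells pre-treated 2 h with serial compound dilutions in 2% FBS DMEM, then infected at an MOI giving full CPE in 2 days; after 48 h, viability by CellTiterBlue fluorescence (560/590 nm) normalised to infected and uninfected vehicle controls; EC50 by non-linear regression, averaged over the four viruses.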
In general terms: Cytopathic effects are the visible damage that an infection or toxin causes in cultured cells.

As for `O=C(NC1CC1)C(=O)[C@H]1CN(CC2CCOCC2)C(=O)[C@@H]1Cc1ccccc1` (racemic) [FP-32, Rac-2-[(3R,4R)-4-benzyl-1-[(oxan-4-yl)methyl]-5-oxopyrrolidin-3-yl]-N-cyclopropyl-2-oxoacetamide], at PLA2G16, the half-inhibitory concentration (IC50) is under 1 µM. The EC50 in assay [1] was under 1 µM.

Turning to `O=C(NCC1CC1)C(=O)[C@H]1CN(c2cncnc2)C(=O)[C@@H]1c1ccccc1` (racemic) [FP-64, Rac-N-(cyclopropylmethyl)-2-oxo-2-[(3R,4S)-5-oxo-4-phenyl-1-(pyrimidin-5-yl)pyrrolidin-3-yl]acetamide], the IC50 at PLA2G16 is under 1 µM. Also, in assay [1], the EC50 lay within 1 to 10 µM.

Regarding `O=C(NC1CC1)C(=O)[C@H]1CNC(=O)[C@@H]1Cc1ccc(F)cc1` (racemic) [FP-29, Rac-N-cyclopropyl-2-[(3R,4R)-4-[(4-fluorophenyl)methyl]-5-oxopyrrolidin-3-yl]-2-oxoacetamide], the IC50 at PLA2G16 was under 1 µM. Further, the EC50 in assay [1] was under 1 µM.

Take `O=C(NCC1CC1)C(=O)[C@H]1CNC(=O)[C@@H]1c1ccc(F)cc1` (racemic) [FP-28, Rac-N-(cyclopropylmethyl)-2-[(3R,4S)-4-(4-fluorophenyl)-5-oxopyrrolidin-3-yl]-2-oxoacetamide]: the IC50 at PLA2G16 is under 1 µM. In addition, the EC50 in assay [1] is under 1 µM.

As to `Cn1ncnc1CN1C[C@H](C(=O)C(=O)NC2CC2)[C@@H](Cc2ccccc2)C1=O` (single isomer, unassigned) [FP-98], on PLA2G16, the IC50 is under 1 µM. In addition, in assay [1], the EC50 fell in the range of 1 to 10 µM.

As for `O=C(NCC1CC1)C(=O)[C@H]1CNC(=O)[C@@H]1c1ccccc1` (racemic) [FP-10, Rac-N-(cyclopropylmethyl)-2-oxo-2-[(3R,4S)-5-oxo-4-phenylpyrrolidin-3-yl]acetamide], the 50% inhibitory concentration (IC50) on PLA2G16 was under 1 µM. For the same compound, in assay [1], the EC50 was under 1 µM.

For the compound `Cn1cc(N2C[C@H](C(=O)C(=O)NC3CC3)[C@@H](Cc3ccccc3)C2=O)cn1` (racemic) [FP-75, Rac-2-[(3R,4R)-4-benzyl-1-(1-methyl-1H-pyrazol-4-yl)-5-oxopyrrolidin-3-yl]-N-cyclopropyl-2-oxoacetamide], on PLA2G16, the IC50 was under 1 µM. The EC50 in assay [1] was under 1 µM.

Take `O=C(NCC(F)F)C(=O)[C@H]1CNC(=O)[C@@H]1Cc1ccccc1` (racemic) [FP-4, Rac-2-[(3R,4R)-4-benzyl-5-oxopyrrolidin-3-yl]-N-(2,2-difluoroethyl)-2-oxoacetamide]: the IC50 on PLA2G16 is under 1 µM. In assay [1], the EC50 was under 1 µM.

For the compound `O=C(NCC1CC1)C(=O)[C@H]1CNC(=O)[C@@H]1Cc1ccccc1` (single isomer, unassigned) [FP-81], the IC50 at PLA2G16 is under 1 µM. Further, in assay [1], the EC50 is under 1 µM.

As to `CC(C)(C)NC(=O)C(=O)[C@H]1CNC(=O)[C@@H]1c1ccccc1` (racemic) [FP-17, Rac-N-tert-butyl-2-oxo-2-[(3R,4S)-5-oxo-4-phenylpyrrolidin-3-yl]acetamide], on PLA2G16, the IC50 was under 1 µM. Besides, in assay [1], the EC50 was under 1 µM.

Turning to `Cc1cc(CN2C[C@H](C(=O)C(=O)NC3CC3)[C@@H](c3ccccc3)C2=O)no1` (racemic) [FP-100, Rac-N-cyclopropyl-2-[(3R,4S)-1-[(5-methyl-1,2-oxazol-3-yl)methyl]-5-oxo-4-phenylpyrrolidin-3-yl]-2-oxoacetamide], at PLA2G16, the IC50 was under 1 µM. Also, in assay [1], the EC50 lay in the range of 1 to 10 µM.

On to `O=C(NC1CC1)C(=O)[C@H]1CN(c2ccc(Cl)nn2)C(=O)[C@@H]1Cc1ccccc1` (racemic) [FP-62, Rac-2-[(3R,4R)-4-benzyl-1-(6-chloropyridazin-3-yl)-5-oxopyrrolidin-3-yl]-N-cyclopropyl-2-oxoacetamide], for which the IC50 on PLA2G16 was under 1 µM. Also, the EC50 in assay [1] was under 1 µM.

As for `O=C(NC1CC1)C(=O)[C@H]1CN(c2cccc(=O)[nH]2)C(=O)[C@@H]1Cc1ccccc1` (racemic) [FP-70, Rac-2-[(3R,4R)-4-benzyl-5-oxo-1-(6-oxo-1,6-dihydropyridin-2-yl)pyrrolidin-3-yl]-N-cyclopropyl-2-oxoacetamide], at PLA2G16, the IC50 is under 1 µM. Besides, in assay [1], the EC50 is under 1 µM.

Regarding `O=C(NCC1CC1)C(=O)[C@H]1CNC(=O)[C@@H]1Cc1ccc(F)cc1` (racemic) [FP-31, Rac-N-(cyclopropylmethyl)-2-[(3R,4R)-4-[(4-fluorophenyl)methyl]-5-oxopyrrolidin-3-yl]-2-oxoacetamide], on PLA2G16, the IC50 is under 1 µM. In addition, the EC50 in assay [1] is under 1 µM.

`CC(F)(F)CNC(=O)C(=O)[C@H]1CNC(=O)[C@@H]1C1CCCCC1` (racemic) [FP-12, Rac-2-[(3R,4R)-4-cyclohexyl-5-oxopyrrolidin-3-yl]-N-(2,2-difluoropropyl)-2-oxoacetamide]: on PLA2G16, the IC50 is under 1 µM. Besides, the EC50 in assay [1] is under 1 µM.

On to `CC(C)NC(=O)C(=O)[C@H]1CNC(=O)[C@@H]1c1ccc(F)cc1` (racemic) [FP-27, Rac-2-[(3R,4S)-4-(4-fluorophenyl)-5-oxopyrrolidin-3-yl]-2-oxo-N-(propan-2-yl)acetamide], for which, at PLA2G16, the IC50 was under 1 µM. In addition, the EC50 in assay [1] lay within 1 to 10 µM.

As for `CC(F)(F)CNC(=O)C(=O)[C@H]1CN(c2cncnc2C#N)C(=O)[C@@H]1Cc1ccccc1` (racemic) [FP-66, Rac-2-[(3R,4R)-4-benzyl-1-(4-cyanopyrimidin-5-yl)-5-oxopyrrolidin-3-yl]-N-(2,2-difluoropropyl)-2-oxoacetamide], on PLA2G16, the IC50 was under 1 µM. Further, the EC50 in assay [1] was 1 to 10 µM.

As to `O=C(NCC(F)(F)C(F)(F)F)C(=O)[C@H]1CNC(=O)[C@@H]1c1ccccc1` (racemic) [FP-25, Rac-2-oxo-2-[(3R,4S)-5-oxo-4-phenylpyrrolidin-3-yl]-N-(2,2,3,3,3-pentafluoro-propyl)acetamide], the IC50 on PLA2G16 is under 1 µM. Besides, the EC50 in assay [1] lay in the range of 1 to 10 µM.

With `CC(F)(F)CNC(=O)C(=O)[C@H]1CNC(=O)[C@@H]1c1ccccc1` (racemic) [FP-11, Rac-N-(2,2-difluoropropyl)-2-oxo-2-[(3R,4S)-5-oxo-4-phenylpyrrolidin-3-yl]acetamide], on PLA2G16, the IC50 was under 1 µM. Moreover, in assay [1], the EC50 lay in the range of 1 to 10 µM.

Turning to `CC(C)ONC(=O)C(=O)[C@H]1CNC(=O)[C@@H]1Cc1ccc(F)cc1` (racemic) [FP-77, Rac-2-[(3R,4R)-4-[(4-fluorophenyl)methyl]-5-oxopyrrolidin-3-yl]-2-oxo-N-(propan-2-yloxy)acetamide], at PLA2G16, the IC50 was under 1 µM. Further, the EC50 in assay [1] fell in the range of 1 to 10 µM.

For the compound `CCNC(=O)C(=O)[C@H]1CNC(=O)[C@@H]1Cc1ccccc1` (racemic) [FP-3, Rac-2-[(3R,4R)-4-benzyl-5-oxopyrrolidin-3-yl]-N-ethyl-2-oxoacetamide], the IC50 on PLA2G16 is under 1 µM. Further, in assay [1], the EC50 is under 1 µM.

In the case of `CC(F)(F)CNC(=O)C(=O)[C@H]1CNC(=O)[C@@H]1c1ccc(F)cc1` (racemic) [FP-26, Rac-N-(2,2-difluoropropyl)-2-[(3R,4S)-4-(4-fluorophenyl)-5-oxopyrrolidin-3-yl]-2-oxoacetamide], at PLA2G16, the IC50 was under 1 µM. Besides, the EC50 in assay [1] lay within 1 to 10 µM.

Consider `Cn1ncnc1CN1C[C@@H](C(=O)C(=O)NC2CC2)[C@H](Cc2ccccc2)C1=O` (single isomer, unassigned) [FP-97], for which the IC50 at PLA2G16 was 1 to 10 µM. Also, in assay [1], the EC50 is over 10 µM.

`Cc1cc(CN2C[C@H](C(=O)C(=O)NC3CC3)[C@@H](Cc3ccccc3)C2=O)on1` (racemic) [FP-46, Rac-2-[(3R,4R)-4-benzyl-1-[(3-methyl-1,2-oxazol-5-yl)methyl]-5-oxopyrrolidin-3-yl]-N-cyclopropyl-2-oxoacetamide]: the IC50 at PLA2G16 was under 1 µM. Moreover, the concentration for a half-maximal effect (EC50) in assay [1] fell in the range of 1 to 10 µM.

For the compound `Cc1ncncc1N1C[C@H](C(=O)C(=O)NCC(C)(F)F)[C@@H](Cc2ccccc2)C1=O` (racemic) [FP-68, Rac-2-[(3R,4R)-4-benzyl-1-(4-methylpyrimidin-5-yl)-5-oxopyrrolidin-3-yl]-N-(2,2-difluoropropyl)-2-oxoacetamide], the IC50 on PLA2G16 is under 1 µM. Moreover, the EC50 in assay [1] was 1 to 10 µM.

`CC(F)(F)CNC(=O)C(=O)[C@H]1CN(c2cccc(=O)[nH]2)C(=O)[C@@H]1Cc1ccccc1` (racemic) [FP-74, Rac-2-[(3R,4R)-4-benzyl-5-oxo-1-(6-oxo-1,6-dihydropyridin-2-yl)pyrrolidin-3-yl]-N-(2,2-difluoropropyl)-2-oxoacetamide]: on PLA2G16, the IC50 was under 1 µM. The EC50 in assay [1] is under 1 µM.

With `CC(C)NC(=O)C(=O)[C@H]1CNC(=O)[C@@H]1Cc1ccccc1` (racemic) [FP-5, Rac-2-[(3R,4R)-4-benzyl-5-oxopyrrolidin-3-yl]-2-oxo-N-(propan-2-yl)acetamide], the IC50 at PLA2G16 was under 1 µM. The EC50 in assay [1] was under 1 µM.

In the case of `O=C(NC1CC1)C(=O)[C@H]1CNC(=O)[C@@H]1Cc1ccccc1` (racemic) [FP-2, Rac-2-[(3R,4R)-4-benzyl-5-oxopyrrolidin-3-yl]-N-cyclopropyl-2-oxoacetamide], at PLA2G16, the IC50 is under 1 µM. In assay [1], the EC50 was under 1 µM.

Take `O=C(NCC(F)(F)F)C(=O)[C@H]1CNC(=O)[C@@H]1c1ccccc1` (racemic) [FP-22, Rac-2-oxo-2-[(3R,4S)-5-oxo-4-phenylpyrrolidin-3-yl]-N-(2,2,2-trifluoroethyl)acetamide]: the IC50 on PLA2G16 is under 1 µM. Moreover, the EC50 in assay [1] is 1 to 10 µM.

A word on the IC50: it is the concentration at which inhibition is half-maximal. Broadly, the EC50 is the concentration giving half of the maximal effect.
